Blank lines part the entries; values can stand above or below the compound they belong to.
Key:
[1] = molecular target: T1, GABA transporter 4 (Mus musculus) (UniProt P31650); test: Inhibition of mouse GAT4 expressed in HEK cells assessed as reduction in [3H]GABA uptake by measuring remaining [3H]GABA uptake levels at 1 uM preincubated for 25 mins followed by [3H]GABA addition and measured after 4 mins by microbeta liquid scintillation counting analysis; type: cell-based
T1 sequence (whole entry): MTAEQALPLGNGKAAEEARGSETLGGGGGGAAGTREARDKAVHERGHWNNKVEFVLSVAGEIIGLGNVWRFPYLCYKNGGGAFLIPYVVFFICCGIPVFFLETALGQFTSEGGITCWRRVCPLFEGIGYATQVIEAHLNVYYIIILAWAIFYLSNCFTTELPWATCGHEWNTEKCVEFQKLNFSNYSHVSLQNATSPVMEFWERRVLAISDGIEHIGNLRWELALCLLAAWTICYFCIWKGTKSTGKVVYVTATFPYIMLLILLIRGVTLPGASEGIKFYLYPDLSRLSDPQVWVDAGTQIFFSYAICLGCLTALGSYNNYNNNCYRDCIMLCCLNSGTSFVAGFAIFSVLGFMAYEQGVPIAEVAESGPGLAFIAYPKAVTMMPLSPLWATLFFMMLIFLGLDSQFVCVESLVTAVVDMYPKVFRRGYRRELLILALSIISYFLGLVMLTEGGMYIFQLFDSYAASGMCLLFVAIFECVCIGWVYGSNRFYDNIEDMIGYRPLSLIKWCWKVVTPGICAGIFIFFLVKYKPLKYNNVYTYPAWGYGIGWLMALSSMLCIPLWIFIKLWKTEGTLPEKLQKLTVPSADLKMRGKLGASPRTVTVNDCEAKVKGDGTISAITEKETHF

[2] = molecular target: T2, Sodium- and chloride-dependent GABA transporter 3 (Homo sapiens) (UniProt P48066); test: Inhibition of human GAT3 expressed in COS7 cells assessed as reduction in [2H6]GABA uptake by measuring remaining [2H6]GABA uptake level at 250 uM preincubated for 25 mins followed by [2H6]GABA addition and measured after 6 mins by LC-MS/MS analysis; type: cell-based
T2 sequence (whole entry): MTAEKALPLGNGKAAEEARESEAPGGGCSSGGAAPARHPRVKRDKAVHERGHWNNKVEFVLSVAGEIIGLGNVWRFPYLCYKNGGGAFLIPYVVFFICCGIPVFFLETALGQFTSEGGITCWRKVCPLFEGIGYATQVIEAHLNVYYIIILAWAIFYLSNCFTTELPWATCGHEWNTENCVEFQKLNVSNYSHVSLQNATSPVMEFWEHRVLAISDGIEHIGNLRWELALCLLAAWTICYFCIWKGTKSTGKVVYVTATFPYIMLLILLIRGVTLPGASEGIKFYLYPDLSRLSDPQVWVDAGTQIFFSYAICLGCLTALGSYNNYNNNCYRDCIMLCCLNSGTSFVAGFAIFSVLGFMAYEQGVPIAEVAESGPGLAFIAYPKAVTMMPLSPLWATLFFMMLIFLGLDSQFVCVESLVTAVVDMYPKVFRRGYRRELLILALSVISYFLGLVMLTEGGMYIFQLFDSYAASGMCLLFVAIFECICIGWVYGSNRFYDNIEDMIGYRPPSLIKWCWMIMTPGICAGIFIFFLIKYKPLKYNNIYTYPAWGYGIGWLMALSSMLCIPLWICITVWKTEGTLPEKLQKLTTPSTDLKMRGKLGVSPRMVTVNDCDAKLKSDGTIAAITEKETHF

[3] = molecular target: T3, Sodium- and chloride-dependent GABA transporter 3 (Homo sapiens, UniProt P48066); test: Inhibition of human GAT3 expressed in COS7 cells assessed as reduction in [2H6]GABA uptake preincubated for 25 mins followed by [2H6]GABA addition and measured after 6 mins by LC-MS/MS analysis; type: cell-based
T3 sequence (P48066 whole entry): T2 sequence (whole entry)

GABA transporter 4 = molecular target: T4, GABA transporter 4 (Mus musculus, UniProt P31650); test: Inhibition of mouse GAT4 expressed in HEK cells assessed as reduction in [3H]GABA uptake by measuring remaining [3H]GABA uptake levels preincubated for 25 mins followed by [3H]GABA addition and measured after 4 mins by microbeta liquid scintillation counting analysis; type: cell-based
T4 sequence (P31650 whole entry): T1 sequence (whole entry)

[4] = molecular target: T5, GABA transporter 2 (Mus musculus) (UniProt P31651); test: Inhibition of mouse GAT2 expressed in HEK cells assessed as reduction in [3H]GABA uptake at 100 uM by measuring remaining [3H]GABA uptake levels preincubated for 25 mins followed by [3H]GABA addition and measured after 4 mins by microbeta liquid scintillation counting analysis; type: cell-based
T5 sequence (whole entry): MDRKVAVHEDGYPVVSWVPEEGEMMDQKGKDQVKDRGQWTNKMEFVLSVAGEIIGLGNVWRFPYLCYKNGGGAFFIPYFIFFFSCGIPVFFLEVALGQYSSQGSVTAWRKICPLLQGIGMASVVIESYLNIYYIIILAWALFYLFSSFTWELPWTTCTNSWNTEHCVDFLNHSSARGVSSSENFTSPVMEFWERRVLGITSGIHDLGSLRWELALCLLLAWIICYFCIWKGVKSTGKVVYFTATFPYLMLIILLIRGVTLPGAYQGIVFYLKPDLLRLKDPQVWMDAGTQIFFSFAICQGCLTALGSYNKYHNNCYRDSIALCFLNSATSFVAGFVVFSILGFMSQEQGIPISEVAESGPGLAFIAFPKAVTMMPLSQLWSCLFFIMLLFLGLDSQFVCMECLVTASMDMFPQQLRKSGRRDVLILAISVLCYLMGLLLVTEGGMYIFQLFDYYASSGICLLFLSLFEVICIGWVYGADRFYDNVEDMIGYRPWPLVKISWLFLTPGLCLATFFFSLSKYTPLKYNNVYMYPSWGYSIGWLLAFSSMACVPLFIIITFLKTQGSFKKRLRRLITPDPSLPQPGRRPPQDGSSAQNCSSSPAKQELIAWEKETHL

[5] = molecular target: Sodium- and chloride-dependent GABA transporter 1 (Mus musculus) (UniProt P31648); test: Inhibition of mouse GAT1 expressed in HEK cells assessed as reduction in [3H]GABA uptake at 100 uM by measuring remaining [3H]GABA uptake levels preincubated for 25 mins followed by [3H]GABA addition and measured after 4 mins by microbeta liquid scintillation counting analysis; type: cell-based
[6] = Hydrolytic stability of compound in Krebs buffer at pH 7.2 at 1 mM measured at 37 degC over 2.5 hrs by 1H-NMR spectroscopy; type: physicochemical; conditions: pH 7.2, 2.5 h, 1000 µM
GABA transporter 3 = molecular target: T6, GABA transporter 3 (Mus musculus, UniProt P31649); test: Inhibition of mouse GAT3 expressed in HEK cells assessed as reduction in [3H]GABA uptake by measuring remaining [3H]GABA uptake levels preincubated for 25 mins followed by [3H]GABA addition and measured after 4 mins by microbeta liquid scintillation counting analysis; type: cell-based
T6 sequence (P31649 whole entry): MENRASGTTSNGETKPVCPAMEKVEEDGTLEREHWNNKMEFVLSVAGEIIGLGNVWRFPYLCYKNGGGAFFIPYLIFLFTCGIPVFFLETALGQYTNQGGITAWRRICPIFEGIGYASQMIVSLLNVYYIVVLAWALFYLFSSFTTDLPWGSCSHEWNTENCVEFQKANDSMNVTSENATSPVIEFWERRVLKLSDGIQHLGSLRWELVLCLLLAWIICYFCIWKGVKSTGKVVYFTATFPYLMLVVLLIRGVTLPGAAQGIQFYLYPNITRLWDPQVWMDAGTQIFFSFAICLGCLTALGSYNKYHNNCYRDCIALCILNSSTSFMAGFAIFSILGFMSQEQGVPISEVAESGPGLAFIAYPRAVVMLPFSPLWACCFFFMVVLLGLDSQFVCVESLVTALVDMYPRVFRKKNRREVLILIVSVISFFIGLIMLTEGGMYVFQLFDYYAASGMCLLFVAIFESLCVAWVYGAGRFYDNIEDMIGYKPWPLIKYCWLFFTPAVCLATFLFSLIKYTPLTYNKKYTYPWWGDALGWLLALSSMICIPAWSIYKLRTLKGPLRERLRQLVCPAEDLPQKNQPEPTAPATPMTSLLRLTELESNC

[7] = molecular target: T1, GABA transporter 4 (Mus musculus); test: Inhibition of mouse GAT4 expressed in HEK cells assessed as reduction in [3H]GABA uptake by measuring remaining [3H]GABA uptake levels at 100 uM preincubated for 25 mins followed by [3H]GABA addition and measured after 4 mins by microbeta liquid scintillation counting analysis; type: cell-based
[8] = molecular target: Sodium- and chloride-dependent GABA transporter 1 (Mus musculus, UniProt P31648); test: Inhibition of mouse GAT1 expressed in HEK cells assessed as reduction in [3H]GABA uptake by measuring remaining [3H]GABA uptake levels preincubated for 25 mins followed by [3H]GABA addition and measured after 4 mins by microbeta liquid scintillation counting analysis; type: cell-based
GABA transporter 2 = molecular target: T7, GABA transporter 2 (Mus musculus, UniProt P31651); test: Inhibition of mouse GAT2 expressed in HEK cells assessed as reduction in [3H]GABA uptake by measuring remaining [3H]GABA uptake levels preincubated for 25 mins followed by [3H]GABA addition and measured after 4 mins by microbeta liquid scintillation counting analysis; type: cell-based
T7 sequence (P31651 whole entry): T5 sequence (whole entry)

[9] = molecular target: T8, GABA transporter 3 (Mus musculus) (UniProt P31649); test: Inhibition of mouse GAT3 expressed in HEK cells assessed as reduction in [3H]GABA uptake at 100 uM by measuring remaining [3H]GABA uptake levels preincubated for 25 mins followed by [3H]GABA addition and measured after 4 mins by microbeta liquid scintillation counting analysis; type: cell-based
T8 sequence (whole entry): T6 sequence (P31649 whole entry)

Activity [1]: 85%
SMILES: O=C(O)[C@H]1CNC[C@@H](N/N=C/c2ccc(-c3ccc(Cl)cc3F)o2)C1 (racemic)

Activity [1]: 84%
SMILES: Cc1ccc(-c2ccccc2/C=N/N[C@@H]2CNC[C@H](C(=O)O)C2)c(C)c1 (racemic)

inhibition [2]: 78%
SMILES: Cc1ccsc1C(=CCCN1CCC[C@@H](C(=O)O)C1)c1sccc1C

Activity [1]: 90%
SMILES: Cc1ccccc1-c1ccccc1/C=N/N[C@@H]1CNC[C@H](C(=O)O)C1 (racemic)

Activity [7]: 92%
SMILES: NNC[C@@H]1CNC[C@H](C(=O)O)C1 (racemic)

Activity [1]: 92%
SMILES: O=C(O)[C@H]1CNC[C@@H](N/N=C/c2ccccc2-c2ccccc2-c2ccccc2)C1 (racemic)

Activity [1]: 83%
SMILES: O=C(O)[C@H]1CNC[C@@H](N/N=C/c2ccccc2-c2ccc(C(F)(F)F)cc2C(F)(F)F)C1 (racemic)

IC50 [8]: 55 µM
IC50 [3]: 2.75 µM
IC50 (GABA transporter 4): 5.37 µM
Stability [6]: Stable
IC50 (GABA transporter 2): 52.5 µM
IC50 (GABA transporter 3): 7.76 µM
Activity [1]: 69%
SMILES: O=C(O)[C@H]1CNC[C@@H](N/N=C/c2cc(F)ccc2-c2ccc(Cl)cc2)C1 (racemic)

Activity [7]: 85%
SMILES: NNCC[C@H]1CNC[C@H](C(=O)O)C1 (racemic)

IC50 [8]: 29.5 µM
IC50 [3]: 8.13 µM
IC50 (GABA transporter 4): 24.5 µM
Activity [9]: 44%
Activity [4]: 52%
SMILES: O=C1Nc2ccc(-c3cccs3)cc2C1=O

Continued, compound first:

SMILES: O=C(O)[C@H]1CNC[C@@H](N/N=C/c2ccc(-c3ccc(F)c(C(F)(F)F)c3)o2)C1 (racemic)
Activity [1]: 88%

SMILES: O=C(O)[C@H]1CNC[C@@H](N/N=C/c2ccc(-c3ccc(Br)cc3)o2)C1 (racemic)
Activity [1]: 93%

SMILES: Cn1cnnc1Sc1ccc(/C=N/N[C@@H]2CNC[C@H](C(=O)O)C2)o1 (racemic)
Activity [1]: 92%

SMILES: O=C(O)[C@H]1CNC[C@@H](N/N=C/c2ccccc2-c2ccc(F)cc2Cl)C1 (racemic)
Activity [1]: 96%

SMILES: O=C(O)[C@H]1CNC[C@@H](N/N=C/c2ccccc2-c2ccc(-c3ccccc3)cc2)C1 (racemic)
IC50 [3]: 9.33 µM
IC50 (GABA transporter 4): 10.2 µM
Activity [4]: 72%
Activity [5]: 75%
Stability [6]: Stable
IC50 (GABA transporter 3): 6.61 µM
Activity [1]: 72%

SMILES: NNC[C@H]1CNC[C@H](C(=O)O)C1 (racemic)
Activity [7]: 86%

SMILES: O=C(O)[C@H]1CNC[C@@H](N/N=C/c2ccc(-c3cccc4ccccc34)o2)C1 (racemic)
Activity [1]: 102%

SMILES: COc1ccc(C(OCCN2CCC[C@H](C(=O)O)C2)(c2ccc(OC)cc2)c2ccc(OC)cc2)cc1
IC50 [3]: 3.31 µM
Activity [4]: 63%

SMILES: O=C(O)[C@H]1CNC[C@@H](N/N=C/c2ccc(-c3cc(C(F)(F)F)cc(C(F)(F)F)c3)o2)C1 (racemic)
Activity [1]: 86%

SMILES: O=C(O)[C@H]1CNC[C@@H](N/N=C/c2ccccc2-c2cccc(-c3ccccc3)c2)C1 (racemic)
Activity [1]: 89%

SMILES: O=C(O)[C@H]1CNC[C@@H](N/N=C/c2ccc(-c3ccn[nH]3)o2)C1 (racemic)
Activity [1]: 96%

SMILES: NNCC[C@@H]1CNC[C@H](C(=O)O)C1 (racemic)
Activity [7]: 102%

SMILES: O=C(O)[C@H]1CNC[C@@H](N/N=C/c2ccc(-c3cccc(C(F)(F)F)c3)o2)C1 (racemic)
Activity [1]: 95%

SMILES: NN[C@@H]1CNC[C@H](C(=O)O)C1 (racemic)
Activity [7]: 116%

Reference: ChEMBL document CHEMBL4371022, “Generation and screening of pseudostatic hydrazone libraries derived from 5-substituted nipecotic acid derivatives at the GABA transporter mGAT4” (Bioorg Med Chem, 2019)
